Literature values in patent publication US20120316496A1, “USE OF COMPOSITIONS TO COAT CATHETER BALLOONS AND COATED CATHETER BALLOONS” (priority 2009, published 2012).

Details: at 20° C.

vapor pressure	SMILES
20 Pa	CC12CCC(CC1=O)C2(C)C (stereo not shown) [Camphor]
250 Pa	C[S+](C)[O-] [DMSO, dimethyl sulfoxide]
9700 Pa	CCOC(C)=O [Ethyl acetate]

SMILES	vapor pressure
OCCO [Ethylene glycol]	5,3 Pa
